Measurements taken from publication PMC3514216, “SRC Homology 2 Domain Binding Sites in Insulin, IGF-1 and FGF receptor mediated signaling networks reveal an extensive potential interactome” (Cell Communication and Signaling : CCS, 2012).

Columns and labels:
[1] = target: Grb2 SH2 domain (Homo sapiens, UniProt P62993); test: SPOT peptide array; type: binding; conditions: GST-SH2 0.25 μM, membrane-bound peptide, 1 mM DTT, LiCor read-out
Text: (§1) The use of addressable peptide arrays is a reproducible and semi-quantitative approach that has been extensively validated for studying protein interactions with peptide ligands. To investigate connections between SH2 domain proteins and their putative phosphorylated docking sites on cell surface receptors, we developed addressable arrays consisting of 192 phosphotyrosine peptides. This peptide set was assembled using 71 phosphotyrosine peptide motifs corresponding to all of the cytoplasmic tyrosine residues within the FGF receptors (FGFR1-4), insulin receptor (InsR) and IGF-1 receptor (IGF-1R) (Figure 1A). Activation of these receptors results in the phosphorylation of associated scaffold proteins, and so 75 phosphotyrosine peptides corresponding to a comprehensive list of tyrosine residues within insulin receptor substrates (IRS-1 and IRS-2) and fibroblast receptor substrates (FRS-2 and FRS-3) were included. In addition, 33 phosphotyrosine peptides were incorporated from the downstream signaling proteins PLC-γ1, p130Cas (BCAR1) and p62DOK1. […] These control peptides provide a reference and establish the empirical cut-off for designated binding interactions (Table 1). No discrimination was made against peptides on the basis of reported phosphorylation state in order to examine a diverse and unbiased set of motifs. The resulting set of 192 phosphotyrosine peptides and their corresponding position in the proteins of origin is noted in Additional file 1: Table S1. Addressable arrays were synthesized as membrane-bound 11-mer peptides using the SPOT synthesis technique. While the majority of SH2 domains recognize residues C-terminal to the phosphotyrosine in their cognate peptide ligands, additional contacts between SH2 domains and residues N-terminal to the phosphotyrosine are observed for the SH2 domain of Sh2d1a (SAP) and cannot be ruled out in other cases. Peptides were synthesized with six flanking residues C-terminal to the phosphotyrosine and four residues N-terminal to the phosphotyrosine.
(§2) SH2 domains were arrayed as GST fusion proteins and detected using anti-GST primary antibodies and near-infrared labeled secondary antibodies. In an effort to present a dataset with minimal false positives, we chose an empirical cutoff based on the array average across all peptide spots to classify interactions (Figure 1A). In cases where the intensity of the signal for an individual SH2-domain binding event exceeded the mean intensity of all the peptides on the membrane by three-fold were scored as “array positives” [22]. Non-binding was judged in cases where the intensity of a spot was less than the mean intensity of all spots on the membrane and these were scored as “array negatives”. Peptides with signal intensities between 1X and 3X mean were scored as “indeterminate” and ascribed as neither array positive binding interactions nor array-negative non-binders. […] This signature may be indicative of promiscuity differences between phosphopeptides or there may be a subset of peptides which interact in a nonspecific fashion with either the GST fusion tag or one of the antibodies used for detection, resulting in false positives. Consistent with our goal of reducing the errors associated with identifying false-positives, we probed three separate arrays with three separate preps of the GST fusion tag alone. Potentially non-specificly interacting peptides (so-called ‘sticky’ peptides) were identified as any that bound to GST with above mean intensity in two out of three separate trials. This approach identifies any peptides which interact with GST or either of the recognition antibodies, a known confounding factor for downstream analysis. This conservative approach allows us to score many significant peptides as ‘binders’ which may have been indeterminate before when incorporating the ‘sticky’ peptides into the array average. […]

[2] = system: panel of 50 SH2 domains; test: SPOT peptide array probed with each of 50 GST-SH2 domains; type: binding; conditions: SH2 domains with intensity >3X array mean; GST-SH2 0.25 μM, 1 mM DTT
In short: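 Each GST-fused SH2 domain was overlaid on 192 membrane-synthesized pTyr peptides (11-mers, 4 N-terminal and 6 C-terminal flanking residues) and read with anti-GST and near-infrared secondary antibodies. Binding called relative to membrane mean intensity (>3× positive, <1× negative); GST-only probes defined nonspecific peptides.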

[3] = target: T1, Ptpn11_N SH2 domain (Homo sapiens, UniProt Q06124); parameters: method as in 5 sources, one per row (each row's own in cited_ref): ref [107] = [107]; PMID 8144631; Case RD Piccione E Wolf G Benett AM Lechleider RJ Neel BG Shoelson SE SH-PTP2/Syp SH2 domain binding specificity is defined by direct interactions with platelet-derived growth factor beta-receptor, ep ||| ref [107, 108] = [107]; PMID 8144631; Case RD Piccione E Wolf G Benett AM Lechleider RJ Neel BG Shoelson SE SH-PTP2/Syp SH2 domain binding specificity is defined by direct interactions with platelet-derived growth factor beta-receptor, ep || [108]; PMID 7504175; doi:10.1128/mcb.13.12.7418-7428.1993; Sun XJ Crimmins DL Myers MG Jr Miralpeix M White MF Pleiotropic insulin signals are engaged by multisite phosphorylation of IRS-1 Mol Cell Biol 1993 13 7418 7428 7504175 10.1128/mcb.13.12.7418-7428.19 ||| ref [95, 108, 110] = [95]; PMID 9422724; doi:10.1074/jbc.273.2.729; Ottinger EA Botfield MC Shoelson SE Tandem SH2 domains confer high specificity in tyrosine kinase signaling J Biol Chem 1998 273 729 735 9422724 10.1074/jbc.273.2.729 || [108]; PMID 7504175; doi:10.1128/mcb.13.12.7418-7428.1993; Sun XJ Crimmins DL Myers MG Jr Miralpeix M White MF Pleiotropic insulin signals are engaged by multisite phosphorylation of IRS-1 Mol Cell Biol 1993 13 7418 7428 7504175 10.1128/mcb.13.12.7418-7428.19 || [110]; PMID 9756938; doi:10.1074/jbc.273.41.26908; Myers MG Jr Mendez R Shi P Pierce JH Rhoads R White MF The COOH-terminal tyrosine phosphorylation sites on IRS-1 bind SHP-2 and negatively regulate insulin signaling J Biol Chem 1998 273 26908 26914 9 ||| ref 107 (IRS-1 Y896 also 108) ||| ref 95, 108, 110 = [95]; PMID 9422724; doi:10.1074/jbc.273.2.729; Ottinger EA Botfield MC Shoelson SE Tandem SH2 domains confer high specificity in tyrosine kinase signaling J Biol Chem 1998 273 729 735 9422724 10.1074/jbc.273.2.729 || [108]; PMID 7504175; doi:10.1128/mcb.13.12.7418-7428.1993; Sun XJ Crimmins DL Myers MG Jr Miralpeix M White MF Pleiotropic insulin signals are engaged by multisite phosphorylation of IRS-1 Mol Cell Biol 1993 13 7418 7428 7504175 10.1128/mcb.13.12.7418-7428.19 || [110]; PMID 9756938; doi:10.1074/jbc.273.41.26908; Myers MG Jr Mendez R Shi P Pierce JH Rhoads R White MF The COOH-terminal tyrosine phosphorylation sites on IRS-1 bind SHP-2 and negatively regulate insulin signaling J Biol Chem 1998 273 26908 26914 9; conditions: ref 107 (IRS-1 Y896 also 108); read-out: Relative affinity (IC50); cited from earlier work
T1 sequence (Q06124 6-102 limits assumed): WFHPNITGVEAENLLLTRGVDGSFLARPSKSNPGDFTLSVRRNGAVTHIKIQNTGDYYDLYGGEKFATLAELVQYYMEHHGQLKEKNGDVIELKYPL

[4] = system: Plcγ-C SH2 domain; test: SPOT peptide array; type: binding; conditions: GST-SH2 0.25 μM; for Array positive: membrane-bound peptide, 1 mM DTT, LiCor read-out
Text: as §1, §2

[5] = target: Crk SH2 domain (Homo sapiens, UniProt P46108); test: SPOT peptide array; type: binding; conditions: GST-SH2 0.25 μM, membrane-bound peptide, 1 mM DTT, LiCor read-out
Crk SH2 domain, sequence (P46108 13-118 limits assumed): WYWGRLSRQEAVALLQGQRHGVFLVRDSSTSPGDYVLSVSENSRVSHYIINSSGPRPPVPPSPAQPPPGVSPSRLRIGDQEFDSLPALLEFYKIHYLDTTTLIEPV
Text: as §1, §2

[6] = target: Nck1 SH2 domain (Homo sapiens, UniProt P16333); test: SPOT peptide array; type: binding; conditions: GST-SH2 0.25 μM; for Array positive: membrane-bound peptide, 1 mM DTT, LiCor read-out
Text: as §1, §2

[7] = target: T1, Ptpn11_N SH2 domain; test: SPOT peptide array; type: binding; conditions: GST-SH2 0.25 μM, membrane-bound peptide, 1 mM DTT, LiCor read-out
Text: as §1, §2

[8] = spot intensity as factor of array mean

Grb2 SH2 domain, sequence (P62993 60-152 limits assumed): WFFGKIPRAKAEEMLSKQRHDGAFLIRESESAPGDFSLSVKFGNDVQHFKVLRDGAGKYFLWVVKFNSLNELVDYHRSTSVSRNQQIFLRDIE

| Substance | Array positive [1] | Other SH2 domains bound (additional array-positive SH2 domains) [2] | other results |
| --- | --- | --- | --- |
| NKLVpYENINGL [11-mer phosphotyrosine peptide, FRS2 (Y306)] | Yes (Array-positive binding was ascribed to interactions with intensities greater than three times the array mean) | Grap, Grb7, Sh2d2a |  |
| ELSNpYICMGGK (ELSNYICMGGK) [11-mer phosphotyrosine peptide, IRS-1 (Y465)] |  |  | IC50 [3]: 48 ± 16 µM |
| DDPSpYVNVQNL [11-mer phosphotyrosine control peptide, ShcA (Y426), reference compound] | Yes (Array-positive binding was ascribed to interactions with intensities greater than three times the array mean) | Gads, Grap |  |
| NPGFpYVEANPM [11-mer phosphotyrosine peptide, PLCγ1 (Y783)] |  | PLCγ_C at 1.03X mean; Zap70_N | Array positive [4]: No (Peptide spots with average intensity values between 1X-3X the array mean were defined as ‘indeterminate’. Those with intensities below 1X mean were defined as array negative); Peptide array intensity (X mean) [4, 8]: 1.03 X Mean |
| ATDDpYAVPPPR [11-mer phosphotyrosine peptide, p62DOK1 (Y409), similar to p130Cas (Y410)] |  | Crkl, Hck | Array positive [5]: Yes (Array-positive binding was ascribed to interactions with intensities greater than three times the array mean) |
| ALLNpYENLPSL [11-mer phosphotyrosine peptide, FRS2 (Y349)] | Yes (Array-positive binding was ascribed to interactions with intensities greater than three times the array mean) | Abl1, Abl2, Gads, Grap, Grb2, Grb7, PI3K1_C, Sh2d2a, Sh3bp2 |  |
| PQDIYDVPPVR [11-mer peptide, P130Cas (Y249)] |  | Crkl, Zap70_N | Array positive [5]: Yes (Array-positive binding was ascribed to interactions with intensities greater than three times the array mean) |
| PMHNpYVNTENV [11-mer phosphotyrosine peptide, FRS2 (Y392)] | Yes (Array-positive binding was ascribed to interactions with intensities greater than three times the array mean) | Gads, Grap |  |
| EQDEYDIPRHL [11-mer peptide, p130Cas (Y234)] |  | Brk, Crkl, Fyn, Lck, Lyn, Shc1, Yes | Array positive [5]: Yes (Array-positive binding was ascribed to interactions with intensities greater than three times the array mean) |
| PNGDpYLNVSPS [11-mer phosphotyrosine peptide, IRS-2 (Y766)] | Yes (Array-positive binding was ascribed to interactions with intensities greater than three times the array mean) | Sh2d1b, Vav1 |  |
| EDLSpYGDVPPG [11-mer phosphotyrosine peptide, IRS-1 (Y151)] |  | 1.76X Mean Abl1, Blk, Fyn, Lck, Lyn, Sh2d1b, Shc1, Ship2, Slnk, Yes | Array positive [6]: No (Peptide spots with average intensity values between 1X-3X the array mean were defined as ‘indeterminate’. Those with intensities below 1X mean were defined as array negative); Peptide array intensity (X mean) [6, 8]: 1.76 X Mean |
| SDDDpYDDVDIP [11-mer phosphotyrosine control peptide, HPK1 (Y379), reference compound] |  | Fer, SLNK (similar to BLNK and SLP76) | Array positive [6]: Yes (Array-positive binding was ascribed to interactions with intensities greater than three times the array mean) |
| SIEEpYTEMMPA (SIEEYTEMMPA) [11-mer phosphotyrosine peptide, IRS-1 (Y551)] |  |  | IC50 [3]: 11 ± 1 µM |
| QVHTpYVNTTGV [11-mer phosphotyrosine peptide, FRS2 (Y196)] | Yes (Array-positive binding was ascribed to interactions with intensities greater than three times the array mean) | Abl2, Gads, Grap, PI3K1_C |  |
| GGEFpYGYMTMD [11-mer phosphotyrosine peptide, IRS-2 (Y540)] |  | Dapp1, Grb7 | Array positive [4]: Yes (Array-positive binding was ascribed to interactions with intensities greater than three times the array mean) |
| RQLNpYIQVDLE [11-mer phosphotyrosine peptide, FRS2 (Y436)] |  | Itk, Mist, PLCγ_C, Rasa1_N, Shb, Shd, She, Syk_C | Array positive [7]: Yes (Array-positive binding was ascribed to interactions with intensities greater than three times the array mean) |
| TRDIpYETDpYpYR [triply phosphorylated peptide, InsR (Y1185,89,90)] |  | Crk, Crkl, Fer, Grb7, PI3K1_C | Array positive [4]: Yes (Array-positive binding was ascribed to interactions with intensities greater than three times the array mean) |
